This note sets out measurements from ChEMBL document CHEMBL5528054, “Novel Cocrystal Structures of Peptide Antagonists Bound to the Human Melanocortin Receptor 4 Unveil Unexplored Grounds for Structure-Based Drug Design” (J Med Chem, 2024).

For this assay, the target named is Melanocortin receptor 4 (Homo sapiens, UniProt P32245). The conditions noted are these: HEK293, filed as antagonist, time 1.0 hrs.

The structures appear in SMILES notation.

Chain of Melanocortin receptor 4 (P32245 whole entry): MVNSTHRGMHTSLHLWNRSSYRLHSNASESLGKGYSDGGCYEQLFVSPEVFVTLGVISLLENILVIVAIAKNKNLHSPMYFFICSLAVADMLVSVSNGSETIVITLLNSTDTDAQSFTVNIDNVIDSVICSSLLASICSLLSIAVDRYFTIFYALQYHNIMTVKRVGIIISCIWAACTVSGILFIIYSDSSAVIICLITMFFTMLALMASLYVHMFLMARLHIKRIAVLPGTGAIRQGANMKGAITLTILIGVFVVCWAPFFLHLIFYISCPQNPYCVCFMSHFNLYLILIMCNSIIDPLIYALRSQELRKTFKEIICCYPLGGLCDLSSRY

As for `CCCC[C@H](NC(C)=O)C(=O)N[C@H]1CC(=O)NCCCC[C@@H](C(N)=O)NC(=O)[C@@H](Cc2ccccc2)NC(=O)[C@H](CCCN=C(N)N)NC(=O)[C@@H](Cc2ccc3ccccc3c2)NC(=O)[C@@H]2CCCN2C1=O`, the Tm is 62.6 °C.
